Measurements from PubChem BioAssay (NCI).
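96-well plates; 48 h exposure; 5 concentrations. Endpoints by linear interpolation between flanking doses. Not reached: highest tested concentration assigned. Abbreviation: GI50, concentration required for 50% inhibition of growth. At the TGI there is no net growth.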

Legend:
Experiment in all cases: NCI anticancer screen, dose series, 48 h
786-0 renal = system: 786-0 renal
A498 renal = system: A498 renal
A549 NSCLC = system: A549 NSCLC
ACHN renal = system: ACHN renal
BT-549 breast = system: BT-549 breast
CAKI-1 renal = system: CAKI-1 renal
CCRF-CEM leukemia = system: CCRF-CEM leukemia
COLO 205 colon = system: COLO 205 colon
DU-145 prostate = system: DU-145 prostate
EKVX NSCLC = system: EKVX NSCLC
HCT-116 colon = system: HCT-116 colon
HCT-15 colon = system: HCT-15 colon
HL-60(TB) leukemia = system: HL-60(TB) leukemia
HOP-62 NSCLC = system: HOP-62 NSCLC
HOP-92 NSCLC = system: HOP-92 NSCLC
HS 578T breast = system: HS 578T breast
HT29 colon = system: HT29 colon
K-562 leukemia = system: K-562 leukemia
KM12 colon = system: KM12 colon
LOX IMVI melanoma = system: LOX IMVI melanoma
M14 melanoma = system: M14 melanoma
MALME-3M melanoma = system: MALME-3M melanoma
MCF7 breast = system: MCF7 breast
MDA-MB-435 = system: MDA-MB-435
NCI-H226 lung = system: NCI-H226 lung
NCI-H23 lung = system: NCI-H23 lung
NCI-H460 lung = system: NCI-H460 lung
NCI/ADR-RES ovarian = system: NCI/ADR-RES ovarian
OVCAR-3 ovarian = system: OVCAR-3 ovarian
OVCAR-8 ovarian = system: OVCAR-8 ovarian
PC-3 prostate = system: PC-3 prostate
RPMI-8226 leukemia = system: RPMI-8226 leukemia
RXF 393 renal = system: RXF 393 renal
SF-268 CNS = system: SF-268 CNS
SF-295 CNS = system: SF-295 CNS
SF-539 CNS = system: SF-539 CNS
SK-MEL-2 melanoma = system: SK-MEL-2 melanoma
SK-MEL-28 melanoma = system: SK-MEL-28 melanoma
SK-MEL-5 melanoma = system: SK-MEL-5 melanoma
SK-OV-3 ovarian = system: SK-OV-3 ovarian
SNB-19 CNS = system: SNB-19 CNS
SNB-75 CNS = system: SNB-75 CNS
SR leukemia = system: SR leukemia
SW-620 colon = system: SW-620 colon
T-47D breast = system: T-47D breast
TK-10 renal = system: TK-10 renal
U251 CNS = system: U251 CNS
UACC-257 melanoma = system: UACC-257 melanoma
UACC-62 melanoma = system: UACC-62 melanoma
UO-31 renal = system: UO-31 renal

SMILES: CC[N+](CC)=c1cc2oc3cc(N(C)C)ccc3nc-2cc1C
- GI50 (786-0 renal): 5.12 µM
- TGI (786-0 renal): > 100 µM
- GI50 (A498 renal): 1.54 µM
- TGI (A498 renal): 30.8 µM
- GI50 (A549 NSCLC): 1.71 µM
- TGI (A549 NSCLC): 16 µM
- GI50 (ACHN renal): 10.8 µM
- TGI (ACHN renal): > 100 µM
- GI50 (BT-549 breast): 0.932 µM
- TGI (BT-549 breast): 13.6 µM
- GI50 (CAKI-1 renal): 3.07 µM
- TGI (CAKI-1 renal): 19.6 µM
- GI50 (CCRF-CEM leukemia): 2.3 µM
- TGI (CCRF-CEM leukemia): 65.4 µM
- GI50 (COLO 205 colon): 0.66 µM
- TGI (COLO 205 colon): 2.27 µM
- GI50 (DU-145 prostate): 4.36 µM
- TGI (DU-145 prostate): 33.4 µM
- GI50 (EKVX NSCLC): 1.53 µM
- TGI (EKVX NSCLC): 17.3 µM
- GI50 (HCT-116 colon): 0.563 µM
- TGI (HCT-116 colon): 4.85 µM
- GI50 (HCT-15 colon): 2.75 µM
- TGI (HCT-15 colon): > 100 µM
- GI50 (HL-60(TB) leukemia): 0.313 µM
- TGI (HL-60(TB) leukemia): 2.83 µM
- GI50 (HOP-62 NSCLC): 1.98 µM
- TGI (HOP-62 NSCLC): 37.1 µM
- GI50 (HOP-92 NSCLC): 1.15 µM
- TGI (HOP-92 NSCLC): 8.19 µM
- GI50 (HS 578T breast): 10.5 µM
- TGI (HS 578T breast): 64.2 µM
- GI50 (HT29 colon): 3.47 µM
- TGI (HT29 colon): > 100 µM
- GI50 (K-562 leukemia): 1.78 µM
- TGI (K-562 leukemia): > 100 µM
- GI50 (KM12 colon): 0.975 µM
- TGI (KM12 colon): 14.7 µM
- GI50 (LOX IMVI melanoma): 1.71 µM
- TGI (LOX IMVI melanoma): 12.3 µM
- GI50 (M14 melanoma): 0.471 µM
- TGI (M14 melanoma): 2.65 µM
- GI50 (MALME-3M melanoma): 1.53 µM
- TGI (MALME-3M melanoma): 5.33 µM
- GI50 (MCF7 breast): 0.352 µM
- TGI (MCF7 breast): 2.48 µM
- GI50 (MDA-MB-435): 2.15 µM
- TGI (MDA-MB-435): 17.7 µM
- GI50 (NCI-H226 lung): 6.76 µM
- TGI (NCI-H226 lung): 47.2 µM
- GI50 (NCI-H23 lung): 0.482 µM
- TGI (NCI-H23 lung): 6.79 µM
- GI50 (NCI-H460 lung): 1.86 µM
- TGI (NCI-H460 lung): 73.6 µM
- GI50 (NCI/ADR-RES ovarian): 4.23 µM
- TGI (NCI/ADR-RES ovarian): > 100 µM
- GI50 (OVCAR-3 ovarian): 0.296 µM
- TGI (OVCAR-3 ovarian): 1.02 µM
- GI50 (OVCAR-8 ovarian): 2.11 µM
- TGI (OVCAR-8 ovarian): 9.93 µM
- GI50 (PC-3 prostate): 0.454 µM
- TGI (PC-3 prostate): > 100 µM
- GI50 (RPMI-8226 leukemia): 0.628 µM
- TGI (RPMI-8226 leukemia): 10.1 µM
- GI50 (RXF 393 renal): 15.2 µM
- TGI (RXF 393 renal): 90.1 µM
- GI50 (SF-268 CNS): 1.18 µM
- TGI (SF-268 CNS): 3.48 µM
- GI50 (SF-295 CNS): 1.93 µM
- TGI (SF-295 CNS): 16.8 µM
- GI50 (SF-539 CNS): 0.39 µM
- TGI (SF-539 CNS): 13.1 µM
- GI50 (SK-MEL-2 melanoma): 0.519 µM
- TGI (SK-MEL-2 melanoma): 4.82 µM
- GI50 (SK-MEL-28 melanoma): 8.4 µM
- TGI (SK-MEL-28 melanoma): 42.1 µM
- GI50 (SK-MEL-5 melanoma): 1.04 µM
- TGI (SK-MEL-5 melanoma): 5.69 µM
- GI50 (SK-OV-3 ovarian): 4.45 µM
- TGI (SK-OV-3 ovarian): 98.7 µM
- GI50 (SNB-19 CNS): 2.9 µM
- TGI (SNB-19 CNS): > 100 µM
- GI50 (SNB-75 CNS): 2.59 µM
- TGI (SNB-75 CNS): 11.1 µM
- GI50 (SR leukemia): 2.74 µM
- TGI (SR leukemia): 75 µM
- GI50 (SW-620 colon): 0.791 µM
- TGI (SW-620 colon): 23 µM
- GI50 (T-47D breast): 0.563 µM
- TGI (T-47D breast): > 100 µM
- GI50 (TK-10 renal): 1.94 µM
- TGI (TK-10 renal): 8.38 µM
- GI50 (U251 CNS): 0.538 µM
- TGI (U251 CNS): 6.06 µM
- GI50 (UACC-257 melanoma): 0.306 µM
- TGI (UACC-257 melanoma): 1.56 µM
- GI50 (UACC-62 melanoma): 3.24 µM
- TGI (UACC-62 melanoma): 31.1 µM
- GI50 (UO-31 renal): 3.76 µM
- TGI (UO-31 renal): 41.9 µM
